Test results published in patent US10765670B2, “Use of anti-connexin agents for enhancing the therapeutic effect of acetylcholinesterase inhibitors” (COMMISSARIAT A L'ENERGIE ATOMIQUE ET AUX ENERGIES …, priority 2011, dated 2020).
Marks after values point to notes of the source that are not given here.

How the values were obtained:
male C57bl/6 mice = assay: Electro-encephalographic recording of hippocampal theta activity in mice; assay type: in vivo; conditions: for EEG Relative power to vehicles (relative power of hippocampal theta rhythm): n=7
Description: Electrophysiological effects of donepezil were evaluated by analysis of hippocampal electroencephalographic activity (EEG) as described previously in WO2010/029131. Briefly, the assay is as follows:
Two groups of male C57bl/6 mice (seven mice from 4 to 5 month old and seven mice from 17 to 18 month old) were pre-implanted with bilateral hippocampal bipolar electrodes under isoflurane anaesthesia. A two-week period of recovery was realized before recordings.
Different intraperitoneal treatments were performed by circular combination of 7 mice per treatment (donepezil 0.1 and 0.3 mg/kg, meclofenamic 1 mg/kg, donepezil 0.1 mg/kg+MFA 1 mg/kg).
EEG measures were performed on different batches of awoke mice (previously implanted and tamed) by recordings two hours after injection. The spectral analysis is carried out by Fourier transform (FFT) and allows the calculation of the relative powers for each Hertz and each second. FFT data are then averaged minute by minute and reported to control solvent recording realized on the day before in strictly identical experimental conditions. The spectral powers of two hippocampal electrodes are then averaged between 3 and 12 Hertz and represented hourly.
At day 1, saline was administered intraperitoneally to “adult” or “elderly” mice (n=7), and θ-hippocampal activity was measured for two consecutive hours. On day 2, donepezil alone or in combination with MFA is injected, and θ-hippocampal activity is related to that measured on day 1.

[1] = system: C57bl/6 male mice, 17-18-month old; assay: Behavioral test of working memory, T-maze spontaneous alternation (SA-task) in elderly mice; assay type: in vivo; conditions: for promnesiant effect (increase of total alternation, FIG. 2) / total alternation in T-maze (FIG. 2): elderly mice; for SA-task relative to vehicles (mean percentage of alternation relative to vehicles over the seven trials): 30 min before T-maze, 17-18-month old mice
Description: The alternating sequential test is widely used to assess spatial working memory in mice (Beracochea D. J. and Jaffard R., Behav. Neurosci. 101 (1987) 187-97). Spontaneous alternation is the innate tendency of rodents to alternate their choices to enter into the compartments of arrival of a T-maze device, over successive trials. To alternate during a given trial N, the animal must remember the choice made selectively in test N−1, so the decline in alternating will reflect the phenomenon of oblivion. The response in alternating is performance measure. Sequential alternating assess more specifically the sensitivity to interference, a major factor in oblivion.
The experiment took place in a T-maze (50 cm×10 cm×25 cm). All the subjects (C57bl/6 male mice, 17-18-month old, n=9) were given 7 successive trials separated by a 90-s intertrial interval. To begin a trial, the mouse was placed in the start box for 90 s before the door to the stem was opened. When the subject entered one of the goal arms, the door to that arm was closed. The chosen arm and the time that elapsed between opening the door and the arrival to the end of the chosen arm (task achievement time) were registered. Following a 30-s confinement period in the chosen arm, the animal was removed and placed in the start box for a new trial. Between each test, the unit was cleaned with water and alcohol to avoid olfactory detection. An alternation response was considered each time the subject entered the arm opposite to the one visited on the immediately previous trial. Alternation rate was calculated taking into account the 6 successive trials, and expressed in percentage relative to the maximal alternation rate of 100% (obtained when the subject never returned into the same arm for two consecutive trials).
C57BL/6 mice of 17 to 18 months (“elderly” mice) were intraperitoneally injected with a solution of NaCl (vehicle), donepezil (DZP), meclofenamic acid (MFA) or a combination of these two latter compounds, 30 minutes before T-maze experiment.
Thirty minutes after treatment (NaCl, donepezil, MFA), “elderly” mice are placed in the T-maze device. The percentage of alternation was measured for 7 consecutive trials, 50% corresponding to a random alternation.

[2] = Wagner C. et al 2007; cited from earlier work
rodents = conditions: MFA 1 mg/kg, previously described; cited from earlier work

| SMILES | effect on EEG (θ-hippocampal activity) (male C57bl/6 mice; MFA alone 1 mg/kg i.p.) | promnesiant effect (increase of total alternation, FIG. 2) ([1]; MFA alone 1 mg/kg i.p.) | alternation by blocks of two trials (FIG. 3) ([1]; MFA alone 1 mg/kg i.p., three blocks of trials) | dose at which the anti-inflammatory effect is observed in vivo [2] | effect on the electroencephalographic signal (rodents) | response of θ-hippocampal activity (FIG. 1) (male C57bl/6 mice; 4-5-month old mice, donepezil 0.1 mg/kg i.p.) | response of θ-hippocampal activity (FIG. 1) (male C57bl/6 mice; 4-5-month old mice, donepezil 0.3 mg/kg i.p.) | response of θ-hippocampal activity (FIG. 1) (male C57bl/6 mice; 17-18-month old mice, donepezil 0.3 mg/kg i.p., second hour of recording) | EEG Relative power to vehicles (relative power of hippocampal theta rhythm) (male C57bl/6 mice; donepezil 0.1 mg/kg intraperitoneal) | EEG Relative power to vehicles (relative power of hippocampal theta rhythm) (male C57bl/6 mice; donepezil 0.3 mg/kg intraperitoneal) | SA-task relative to vehicles (mean percentage of alternation relative to vehicles over the seven trials) ([1]; donepezil 0.1 mg/kg i.p.) | promnesiant effect (increase of total alternation, FIG. 2) ([1]; donepezil 0.1 mg/kg i.p.) | alternation by blocks of two trials (FIG. 3), memory interference ([1]; donepezil 0.1 mg/kg i.p., third block (trials 6 and 7)) | SA-task relative to vehicles (mean percentage of alternation relative to vehicles over the seven trials) ([1]; donepezil 0.3 mg/kg i.p., p<0.01) | promnesiant effect (increase of total alternation, FIG. 2) ([1]; donepezil 0.3 mg/kg i.p.) | promnesiant effect (increase of total alternation, FIG. 2) ([1]; donepezil 1 mg/kg i.p.) | total alternation in T-maze (FIG. 2) ([1]; donepezil alone 0.3 mg/kg i.p.) | total alternation in T-maze (FIG. 2) ([1]; donepezil alone 1 mg/kg i.p.) |
| --- | --- | --- | --- | --- | --- | --- | --- | --- | --- | --- | --- | --- | --- | --- | --- | --- | --- | --- |
| Cc1ccc(Cl)c(Nc2ccccc2C(=O)O)c1Cl [MFA, Benzoic 2-[(2,6-di-chloro-3-phenyl)amino] acid] | no effect by its own | no promnesiant effect significant | no significant effect | approximately 5 mg/kg/day | not affecting the electroencephalographic signal |  |  |  |  |  |  |  |  |  |  |  |  |  |
| COc1cc2c(cc1OC)C(=O)C(CC1CCN(Cc3ccccc3)CC1)C2 (stereo not drawn) [donepezil, 2,3-dihydro-5,6-dimethoxy-2-[[1-(phenylmethyl)-4-piperidinyl]methyl]-1H-i-nden-1-one] |  |  |  |  |  | do not respond significantly | do not respond significantly | an effect | 1 | 1 | 35% | no significant promnesiant effect | partially counteract the interference phenomenon | 48%** | significant promnesiant effect | significant promnesiant effect | around 75% | around 75% |
